Test results taken from US20080220083A1, “Pharmaceutical Agent Comprising Blood Components <10 Kda And Their Use For Prophylaxis And Treatment Of Defects Of The Immune System” (priority 2004, published 2008).

Test system: guinea pig T lymphocytes
Test: rosette test on guinea pig T lymphocytes in immunosuppressed guinea pigs
Format: in vivo
Protocol: The composition of the invention was also tested in vivo in various animal systems. Using the rosette test on guinea pig T lymphocytes, the state of cellular immunity under the influence of the composition according to the invention in combination with Oxoplatin, Campto, Taxol and Eloxatin was investigated. In each test, the improvement of the T lymphocyte state in immunosuppressed guinea pigs after administration of the composition according to the invention was tested. Prior to testing, the level of T lymphocytes in the guinea pigs was determined using the rosette test, and subsequently, the decrease in the amount of T lymphocytes caused by the immunosuppressant Azathioprin was determined. A second determination of the T lymphocytes was made seven days after application of Azathioprin. This was followed by subcutaneous application of the composition of the invention into the laboratory animals. The last determination of the T lymphocyte count in the guinea pigs was made 14 to 19 days after application of the composition according to the invention.

SMILES | drop in production of rosettes following application of the cytostatic agent (guinea pigs, rosette test) [%] | drop in production of rosettes following application of the cytostatic agent (guinea pig, in vivo)
CCc1c2c(nc3ccc(OC(=O)N4CCC(N5CCCCC5)CC4)cc13)-c1cc3c(c(=O)n1C2)COC(=O)[C@]3(O)CC [Campto] | 23 | 
O=C1[O][Pt]2([NH][C@@H]3CCCC[C@H]3[NH]2)[O]C1=O [Eloxatin] |  | 22%
N.N.[Cl-].[Cl-].[OH-].[OH-].[Pt+4] [Oxoplatin] |  | about 30%
CC(=O)O[C@H]1C(=O)[C@@]2(C)[C@H]([C@H](OC(=O)c3ccccc3)[C@]3(O)C[C@H](OC(=O)[C@H](O)[C@@H](NC(=O)c4ccccc4)c4ccccc4)C(C)=C1C3(C)C)[C@]1(OC(C)=O)CO[C@@H]1C[C@@H]2O [Taxol] |  | 16%
